Reference: PubChem BioAssay (NCI)
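All cell lines were grown in 96-well plates and treated with compound for 48 hours. TGI: total growth inhibition.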

How the values were obtained:
Test in all cases: DTP human tumour cell line panel, 48 h
IGROV1 ovarian = test system: IGROV1 ovarian
RPMI-8226 leukemia = test system: RPMI-8226 leukemia
CAKI-1 renal = test system: CAKI-1 renal
SK-MEL-2 melanoma = test system: SK-MEL-2 melanoma
CCRF-CEM leukemia = test system: CCRF-CEM leukemia
HOP-62 NSCLC = test system: HOP-62 NSCLC
RXF 393 renal = test system: RXF 393 renal
SK-MEL-5 melanoma = test system: SK-MEL-5 melanoma
UO-31 renal = test system: UO-31 renal
HOP-18 NSCLC = test system: HOP-18 NSCLC
NCI-H522 lung = test system: NCI-H522 lung
SW-620 colon = test system: SW-620 colon
SF-539 CNS = test system: SF-539 CNS
UACC-257 melanoma = test system: UACC-257 melanoma
NCI-H226 lung = test system: NCI-H226 lung
SK-MEL-28 melanoma = test system: SK-MEL-28 melanoma
NCI-H460 lung = test system: NCI-H460 lung
COLO 205 colon = test system: COLO 205 colon
SF-268 CNS = test system: SF-268 CNS
LXFL 529 NSCLC = test system: LXFL 529 NSCLC
SNB-19 CNS = test system: SNB-19 CNS
K-562 leukemia = test system: K-562 leukemia
TK-10 renal = test system: TK-10 renal
OVCAR-8 ovarian = test system: OVCAR-8 ovarian
MALME-3M melanoma = test system: MALME-3M melanoma
OVCAR-3 ovarian = test system: OVCAR-3 ovarian
RXF-631 renal = test system: RXF-631 renal
SNB-75 CNS = test system: SNB-75 CNS
SN12C renal = test system: SN12C renal
SNB-78 CNS = test system: SNB-78 CNS
EKVX NSCLC = test system: EKVX NSCLC
U251 CNS = test system: U251 CNS
786-0 renal = test system: 786-0 renal
KM12 colon = test system: KM12 colon
SK-OV-3 ovarian = test system: SK-OV-3 ovarian
ACHN renal = test system: ACHN renal
OVCAR-4 ovarian = test system: OVCAR-4 ovarian
MOLT-4 leukemia = test system: MOLT-4 leukemia
M19-MEL melanoma = test system: M19-MEL melanoma
A549 NSCLC = test system: A549 NSCLC
HCT-116 colon = test system: HCT-116 colon
DMS 273 small cell lung = test system: DMS 273 small cell lung
HL-60(TB) leukemia = test system: HL-60(TB) leukemia
UACC-62 melanoma = test system: UACC-62 melanoma
KM20L2 colon = test system: KM20L2 colon
A498 renal = test system: A498 renal
HCC-2998 colon = test system: HCC-2998 colon
HCT-15 colon = test system: HCT-15 colon
SR leukemia = test system: SR leukemia
M14 melanoma = test system: M14 melanoma
DMS 114 small cell lung = test system: DMS 114 small cell lung
SF-295 CNS = test system: SF-295 CNS
HOP-92 NSCLC = test system: HOP-92 NSCLC
NCI-H23 lung = test system: NCI-H23 lung
HT29 colon = test system: HT29 colon
LOX IMVI melanoma = test system: LOX IMVI melanoma
DLD-1 colon = test system: DLD-1 colon
OVCAR-5 ovarian = test system: OVCAR-5 ovarian

Measured: TGI

CC(C)[C@@H](C)CC[C@@H](C)C1CC=C2[C@@H]3CCC4C[C@@H](O[Si](C)(C)C(C)(C)C)CC[C@]4(C)C3CC[C@@]21C (stereo not given in full)
not listed: SF-295 CNS | HOP-92 NSCLC | NCI-H23 lung | HT29 colon | LOX IMVI melanoma | DLD-1 colon | OVCAR-5 ovarian
> 100 µM: all other assays above

O=C(Nc1nc(=S)[nH][nH]1)C(=O)C1C(=O)Nc2ccccc2S1=O (stereo not given)
not listed: RPMI-8226 leukemia | SK-MEL-2 melanoma | RXF 393 renal | NCI-H226 lung | K-562 leukemia | SNB-78 CNS | U251 CNS | A498 renal | DLD-1 colon | OVCAR-5 ovarian
> 100 µM: all other assays above

Cn1ccnc1CCc1ccc(Cl)cc1Cl
not listed: SK-MEL-5 melanoma | SR leukemia
> 100 µM: all other assays above
